In one assay the test system is H1299 T18. Nature of the assay: MTS cell viability assay, H1299 T18 resistant variant vs H1299 Parental. The conditions noted are these: H1299 T18 vs H1299 Parental. The assay is classed as cell-based, human. How it is done: NSCLC lines were treated with paclitaxel+carboplatin combination, given in a ˜2:3 wt/wt ratio, to mirror the clinical dosage values of ˜225 mg/m2 and ˜330 mg/m2, paclitaxel and carboplatin respectively. Note that considering the molecular weights of the two drugs, this translates to approximately a 1 to 3.4 molar ratio. Drugs were given in cycles, following a drug on/drug off treatment scheme. Each cycle consisted of 4-5 days of drug treatment and drug-free culturing for about 1-2 weeks or more to allow the surviving cells to repopulate the plate. […] Untreated parental cells were simultaneously maintained at all times for comparison. Cell viability was assessed in 96-well plates using standard MTS assays (Promega). Treatment duration in MTS assays was 4 days. Drugs were tested in two- or four-fold serial dilutions, totaling 8 different drug concentrations, with 8 replicates per concentration. Response was validated in multiple replicate plates (n≥3).
Cell viability was assessed by standard MTS assays using Promega's CellTiter reagents. Eight drug concentrations given as two- or four-fold dilutions were tested for each chemotherapeutic agent. In addition, each experiment contained eight replicates per concentration and the entire assay was performed in multiple replicates (n≥3).
On the technique in general: Tetrazolium assays rely on reduction of a dye to a coloured formazan, in cell work by metabolically active cells.

Assay [1] concerns H3K4me3 demethylase activity. Description: Histone demethylase activity in tumor lysates by ELISA (H3K4me3). The assay is classed as in vivo. As to conditions: H1299 T18 xenografts, drug-treated vs vehicle. From the text:
(§1) To evaluate whether the targeted KDM enzymatic activity was reduced in the JmjC inhibitor-treated tumors in vivo, the inventors measured histone demethylase activity in drug-treated and vehicle-control tumor lysates by ELISA. […] Altogether, the results confirmed reduction of the targeted KDM enzymatic activity with cytostatic/cytotoxic effects in JmjC inhibitor-treated chemoresistant xenografts.

The subject of assay [2] is H3K9me3 demethylase activity. Description: Histone demethylase activity in tumor lysates by ELISA (H3K9me3). Format: in vivo. The conditions noted are these: H1299 T18 xenografts, drug-treated vs vehicle.
Source text: as §1

Another assay concerns H1299 T18 cells. Nature of the assay: Microarray gene expression after 24 h treatment, H1299 T18 cells. The assay is classed as cell-based, human. As to conditions: for expression difference of top up-regulated gene / gene expression changes (total probes): 24 h; for expression difference of top up-regulated gene / gene expression changes (total probes) / Illumina probes reversed in expression / genes reversed in expression: 0.2 μM JIB-04 or 1 μM GSK-J4; for gene expression changes (total probes): fold changes ≥1.5, P ≤0.05; for Illumina probes reversed in expression / genes reversed in expression: reversal of changes acquired with taxane-platin resistance. How it is done:
Gene expression profiling was performed using Illumina HumanWG-6 V3 BeadArrays (for NSCLC patient tumors) or Illumina HumanHT-12 V4 BeadArrays (for cell lines and xenografts). […] Data were pre-processed using the R package mbcb for background correction (Ding et al., 2008), then log-transformed and quantile-normalized with the R package preprocessCore or using in-house MATRIX software ([…]). Microarray data can be found under GEO accession GSE77209. Log ratios, unpaired t-test p values and color-coded heat maps were obtained using MATRIX. For comparisons involving progressively resistant cell line series, analyses were performed using R package by fitting linear regression model on gene expression data against the log transformed IC50 values as measures of drug response. We fitted beta-uniform mixture model to a set of p-values using the R package ClassComparison. […] For xenograft data, differential gene expression analysis was performed by student's t-test. Using 35 gene signature, unsupervised hierarchical clustering (Eisen et al., 1998) was performed to separate neoadjuvant chemotherapy treated patients into two groups. Clustering was based on Euclidean distance matrix and maximum linkage method. Kaplan-Meier survival analysis and multivariate Cox regression were performed by R survival package and replotted using Graphpad Prism 6.00 (GraphPad Software, La Jolla, Calif. USA). R code is provided in […] report.

Assay [3] relates to pro-apoptotic/anti-proliferative genes and proliferative/oncogenic genes. Description: qRT-PCR of pro-apoptotic and proliferative genes in treated H1299 T18 cells. As to conditions: 24 h; JIB-04 0.2 μM or GSK-J4 1 μM. Format: cell-based, human. From the text:
Total RNA was isolated using RNeasy Plus Mini kit (Qiagen) and cDNA was generated using iScript cDNA synthesis kit (BioRad). For epigenetic enzymes, transcripts were detected by SYBR Green chemistry in real time quantitative PCR assays using validated primers. TBP and GAPDH were used as endogenous controls. […] For all non-epigenetic transcripts, TaqMan probes (Life Technologies) were utilized in multiplex with GAPDH internal reference gene. Additionally, a reference sample containing pooled RNA from normal human and tumor tissues (Stratagene) was used. PCR reactions were run using the ABI 7300 Real-time PCR System and analyzed with the included software. The comparative CT method was used to compute relative mRNA expression.
Background: In qPCR the cycle at which signal appears reflects the starting amount.

For assay [4], the system named is H1299 T18 chemo-resistant cells. Description: Colony formation, combination with paclitaxel+carboplatin. The assay is classed as cell-based, human. As to conditions: positive ΔBliss. The protocol: All statistical tests including two-way ANOVA with Sidak's multiple comparisons test, one-way ANOVA with Dunnett's multiple comparisontest, post-test for linear trend and unpaired t-tests were performed using GraphPad Prism 6.00. P values are represented as *P<0.05, **P<0.01, ***P<0.001 and ****P<0.0001. For drug treatments, dose response curves and IC50 values were calculated using GraphPad Prism or in-house DIVISA (Database of InVItro Sensitivity Assays; L. Girard). For drug combination in colony formation, delta Bliss excess was calculated as shown previously (Wilson et al., 2014). Bliss expectation was calculated as A+B−(A×B), where A and B denote the fractional responses from drugs A and B given individually. The difference between Bliss expectation and observed response from combination of drugs A and B at the same doses is the delta Bliss excess.
400 cells were seeded per well in six well plates and treated with various drug concentrations the next day. After 2-3 weeks, colonies were stained with 0.5% crystal violet, 3% formaldehyde solution and counted both manually and automatically using Quantity One image analysis software (Bio-Rad).

The test system of the next assay is A549. Description: Clonogenic survival with ionizing radiation, A549. Format: cell-based, Human. As to conditions: 25 nM JIB-04; for radiosensitization (clonogenic survival): drug 4 h before IR. How it is done:
Cells were serially diluted to appropriate concentrations and plated into 60-mm dish in triplicate for 4 h. Then cells were treated with the indicated drugs, and irradiated 4 hours later with graded doses of radiation for concurrent treatment or irradiated and 4 hours later the drugs added for post-treatment. All cells were irradiated at room temperature in ambient air using a 137Cs source (Mark 1-68 irradiator, JL Shepherd & Associated). Surviving colonies were stained with crystal violet approximately 10 to 14 days later and colonies formed with more than 50 cells were counted. Clonogenic fraction of irradiated cells was normalized to the plating efficiency of unirradiated controls. The data are presented as the mean±SD. The curve S=e^−(αD+βD2) was fitted to the experimental data using a least square fit algorithm using the program Sigma Plot 11.0 (Systat Software, Inc.).

As to `CCOC(=O)CCNc1cc(N2CCc3ccccc3CC2)nc(-c2ccccn2)n1` [GSK-J4], the “sensitivity of resistant variant compared to parental cells” value in the assay on H1299 T18 is listed as “higher sensitivity”. Besides, the “H3K4me3 demethylase activity in tumor lysates” value in assay [1] is listed as “without reducing H3K4me3 or H3K9me3 demethylase activity”. Besides, the “H3K9me3 demethylase activity in tumor lysates” value in assay [2] is “without reducing H3K4me3 or H3K9me3 demethylase activity”. Also, in the assay with H1299 T18 cells, the “expression difference of top up-regulated gene” value is reported as roughly 25 fold, the “gene expression changes (total probes)” value was determined as 710 probes, the “Illumina probes reversed in expression” value worked out at 110 probes and the “genes reversed in expression” value is recorded as 108 genes. In addition, in assay [3], the pro-apoptotic/anti-proliferative gene expression result is given as “up-regulated” and the proliferative/oncogenic gene expression entry is on record as “downregulated”. For the same molecule, in assay [4], the “colony formation in combination with paclitaxel+carboplatin” value is “synergistic inhibition of colony formation”. The “radiosensitization (clonogenic survival)” value with A549 is reported as “failed to radiosensitize”.
With `Clc1ccc(N/N=C(\c2ccccc2)c2ccccn2)nc1` [JIB-04], the “sensitivity of resistant variant compared to parental cells” value with H1299 T18 was “several-fold hyper-sensitized”. In the assay with H1299 T18 (SR = [IC50 of Parental]/[IC50 of Resistant]), the “H1299 T18 SR (Selectivity Ratio)” value is 20.3. Besides, the “H3K4me3 demethylase activity in tumor lysates” value in assay [1] is listed as “significantly inhibited”. Moreover, the “H3K9me3 demethylase activity in tumor lysates” value in assay [2] was “significantly inhibited”. Moreover, in the assay on H1299 T18 cells, the “expression difference of top up-regulated gene” value is on record as roughly 16 fold, the “gene expression changes (total probes)” value is listed as 1469 probes, the “Illumina probes reversed in expression” value is on record as “About 195 probes” and the “genes reversed in expression” value is 187 genes. Also, the “top reversed down-regulated gene, fold change (down)” value in the assay on H1299 T18 cells (LEAP2 for JIB-04, TAF9B for GSK-J4) is reported as roughly 5 fold. Besides, the “top reversed up-regulated gene, fold change (up)” value in the assay with H1299 T18 cells (YPEL2 for JIB-04, BNIP3 for GSK-J4) is on record as roughly 16 fold. In addition, in assay [3], the pro-apoptotic/anti-proliferative gene expression entry is “up-regulated” and the proliferative/oncogenic gene expression result is given as “downregulated”. The “colony formation in combination with paclitaxel+carboplatin” value in assay [4] is “synergistic inhibition of colony formation”. In addition, in the assay on A549, the “radiosensitization, JIB-04 before IR vs 4 h post-irradiation” value is reported as “significantly more robust when administering JIB-04 first” and the “radiosensitization (clonogenic survival)” value is given as “had a radiosensitization/radioenhancement effect”.

The values above are taken from patent US11497740B2, “Use of Jumonji C demethylase inhibitors for the treatment and prevention of chemotherapy resistance and radioresistance in cancer” (THE BOARD OF REGENTS OF THE UNIVERSITY OF TEXAS SYSTEM, priority 2016, dated 2022).
